Data taken from US20220072089A1, “CANCER THERAPEUTIC COMPOSITIONS AND METHODS” (University of Vermont and State Agricultural College, priority 2018, published 2022).
pIC50: −log10 of the molar value. Like-named read-outs stand apart in the source and are kept apart here.

Key:
[1] = tested on: Malignant mesothelioma (MM) cells; test: Malignant mesothelioma cell viability (cell number), Example 1; type: cell-based; conditions: Homo sapiens
Method: Malignant mesothelioma (MM) cells were incubated with increasing concentrations of TS (0-10 μM) and TLK-199 (0-200 μM) for 48 hours and then assayed for cell number (viability).

MM cells = test: Combinations administered to subjects with malignant mesothelioma, Example 8; type: in vivo
Method: Subjects with malignant mesothelioma (MM) are administered (1) thiostrepton (TS) and TLK-199, (2) TS, gentian violet (GV), and TLK or (3) GV and TLK-199.

[2] = tested on: patients with myelodysplatic syndrome; conditions: 50-600 mg/m^2 IV over 60 minutes; cited from earlier work
peroxiredoxin 3 (PRX3) = molecular target: T1, peroxiredoxin 3 (PRX3) (Homo sapiens, UniProt P30048); test: Covalent adduction of PRX3 in MM cells (reducing SDS-PAGE, western blot), Example 7; type: cell-based; conditions: 0, 2, 4 μM TS alone or with 30 μM TLK-199, 24 hours, FIG. 4
T1 construct: endogenous in cells
T1 sequence (P30048 62-256): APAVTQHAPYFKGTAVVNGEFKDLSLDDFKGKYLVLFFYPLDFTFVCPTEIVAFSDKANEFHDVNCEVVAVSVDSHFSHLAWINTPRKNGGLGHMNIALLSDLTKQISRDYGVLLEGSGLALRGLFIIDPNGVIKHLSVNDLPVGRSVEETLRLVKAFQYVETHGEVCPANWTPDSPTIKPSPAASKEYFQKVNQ
Method: Malignant mesothelioma (MM) cells were incubated with 0, 2,and 4 μM Thiostrepton (TS) alone or in the presence of 30 μM TLK-199 for 24 hours. Cell lysates were collected, and proteins were separated by reducing SDS-Polyacrylamide Gel Electrophoresis.

[3] = single agent, malignant mesothelioma cells, 48 hours, read-out: inhibitory concentration required to kill 50% of cells (IC50)

| Compound | pIC50 [1, 3] | effect of including TLK-199 on reduction in viability of MM cells (MM cells) | bone marrow maturation and cellularity [2] | clinical symptoms [2] | transfusion requirements [2] | pIC50 ([1]; 48 h, read-out: inhibitory concentration required to kill 50% of cells (IC50)) | pIC50 ([1]; read-out: calculated IC50) | covalent adduction of PRX3 (PRX3 dimer:monomer ratio) (peroxiredoxin 3 (PRX3)) |
| --- | --- | --- | --- | --- | --- | --- | --- | --- |
| CCOC(=O)[C@@H](NC(=O)[C@H](CSCc1ccccc1)NC(=O)CC[C@H](N)C(=O)OCC)c1ccccc1 [TLK-199, (S)-ethyl 2-amino-5-(((R)-3-(benzylthio)-1-(((S)-2-ethoxy-2-oxo-1-phenylethyl)amino)-1-oxopropan-2-yl)amino)-5-oxopentanoate] | 4.35 | synergistic effect | Improvement in bone marrow maturation and cellularity | improvement in clinical symptoms | reductions in transfusion requirements | – | – | – |
| CN(C)c1ccc(C(=C2C=CC(=[N+](C)C)C=C2)c2ccc(N(C)C)cc2)cc1 [GV, Gentian violet] | 6.82 | – | – | – | – | – | – | – |
| C=C(NC(=O)C(=C)NC(=O)c1csc(C2=N[C@@H]3c4csc(n4)[C@H]4NC(=O)c5csc(n5)[C@H]([C@](C)(O)[C@@H](C)O)NC(=O)[C@H]5CSC(=N5)/C(=C/C)NC(=O)[C@H]([C@@H](C)O)NC(=O)c5csc(n5)[C@]3(CC2)NC(=O)[C@H](C)NC(=O)C(=C)NC(=O)[C@H](C)NC(=O)[C@H]([C@@H](C)CC)N[C@@H]2C=Cc3c([C@H](C)O)cc(nc3[C@H]2O)C(=O)O[C@@H]4C)n1)C(N)=O [TS, Thiostrepton] | – | – | – | – | – | ~5.82 | 5.62 to 6.05 | PRX3 monomers were covalently crosslinked |
